As a reminder, the IC50 is the concentration at which inhibition is half-maximal.

For the first test, the target named is T1, Gonadotropin-releasing hormone receptor (Homo sapiens, UniProt P30968).
T1 sequence (P30968 whole entry): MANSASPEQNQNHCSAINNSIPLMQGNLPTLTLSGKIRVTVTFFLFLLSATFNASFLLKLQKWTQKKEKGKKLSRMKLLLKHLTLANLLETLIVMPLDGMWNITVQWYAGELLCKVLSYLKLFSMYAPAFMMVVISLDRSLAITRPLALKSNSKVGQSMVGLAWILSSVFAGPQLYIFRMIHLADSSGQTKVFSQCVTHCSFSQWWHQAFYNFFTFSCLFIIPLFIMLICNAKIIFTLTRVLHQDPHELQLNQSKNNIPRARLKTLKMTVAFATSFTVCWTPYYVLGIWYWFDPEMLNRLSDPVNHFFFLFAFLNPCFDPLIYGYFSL
Put plainly: Antagonist activity against human GnRH receptor expressed in HEK293 cells co-transfected with pGL4-NFAT promoter AP1-luc assessed as inhibition of 20 nM GnRH-induced NFAT activation pre-incubated for 1 hr before GnRH stimulation and measured after 6 hrs by luciferase reporter gene assay. In kind it is cell-based. (Reporter assays use an easily measured gene product as a stand-in for the process of interest.)
In the case of `Cc1c(N2CCN(Cc3nnc(C(F)(F)F)o3)CC2)c(=O)n(C[C@H](N)c2ccccc2)c(=O)n1Cc1c(F)cccc1C(F)(F)F`, the IC50 was greater than 0.3 µM.
Still for that read-out and setting: with `Cc1c(N2CCN(Cc3cccc(=O)o3)CC2)c(=O)n(C[C@H](N)c2ccccc2)c(=O)n1Cc1c(F)cccc1C(F)(F)F` the figure was greater than 0.3 µM.
Same read-out and setting: as for `Cc1c(N2CCN(Cc3cccc4cnoc34)CC2)c(=O)n(C[C@H](N)c2ccccc2)c(=O)n1Cc1c(F)cccc1C(F)(F)F`, the figure is greater than 0.3 µM; as for `Cc1c(N2CCN(Cc3ccc(C(C)(C)C)o3)CC2)c(=O)n(C[C@H](N)c2ccccc2)c(=O)n1Cc1c(F)cccc1C(F)(F)F`, greater than 0.3 µM.
The same measure, in the same setting: as for `Cc1c(N2CCN(Cc3cc(C(F)(F)F)co3)CC2)c(=O)n(C[C@H](N)c2ccccc2)c(=O)n1Cc1c(F)cccc1C(F)(F)F`, the figure is greater than 0.3 µM.
For the compound `Cc1c(N2CCN(Cc3ccnc(C(F)(F)F)c3)CC2)c(=O)n(C[C@H](N)c2ccccc2)c(=O)n1Cc1c(F)cccc1C(F)(F)F`, the IC50 is 0.226 µM.
The same measure, in the same setting: with `Cc1c(N2CCN(Cc3cccc(-c4ncco4)c3)CC2)c(=O)n(C[C@H](N)c2ccccc2)c(=O)n1Cc1c(F)cccc1C(F)(F)F` the figure was 0.053 µM.

The target of another test is T1, Gonadotropin-releasing hormone receptor. Put plainly: Displacement of [125I]D-Trp6-LHRH from human GnRH receptor expressed in CHO-K1 cell membranes incubated for 1 hr by competitive binding assay. Background: Displacement assays read how much labelled ligand stays bound in the presence of the test substance.
Compound `Cc1c(N2CCN(C(=O)OCc3ccccc3)CC2)c(=O)n(C[C@H](N)c2ccccc2)c(=O)n1Cc1c(F)cccc1F` came in with an IC50 greater than 0.1 µM.
The same measure, in the same setting: as for `Cc1c(N2CCN(Cc3ccc([N+](=O)[O-])cc3)CC2)c(=O)n(C[C@H](N)c2ccccc2)c(=O)n1Cc1c(F)cccc1F`, the figure is 0.0369 µM; as for `Cc1c(N2CCN(Cc3ccc(C#N)cc3)CC2)c(=O)n(C[C@H](N)c2ccccc2)c(=O)n1Cc1c(F)cccc1F`, 0.01 µM.
As for `Cc1c(N2CCN(Cc3cccc(OC(F)(F)F)c3)CC2)c(=O)n(C[C@H](N)c2ccccc2)c(=O)n1Cc1c(F)cccc1F`, the IC50 came to 0.0015 µM.
The same measure, in the same setting: as for `Cc1c(N2CCN(c3ccccn3)CC2)c(=O)n(C[C@H](N)c2ccccc2)c(=O)n1Cc1c(F)cccc1F`, the figure is greater than 1 µM.
Same read-out and setting: as for `Cc1c(N2CCN(C(=O)c3ccccc3)CC2)c(=O)n(C[C@H](N)c2ccccc2)c(=O)n1Cc1c(F)cccc1F`, the figure is greater than 0.1 µM; as for `Cc1c(N2CCN(Cc3cccc4cccnc34)CC2)c(=O)n(C[C@H](N)c2ccccc2)c(=O)n1Cc1c(F)cccc1C(F)(F)F`, greater than 0.1 µM; as for `Cc1cccc(CN2CCN(c3c(C)n(Cc4c(F)cccc4F)c(=O)n(C[C@H](N)c4ccccc4)c3=O)CC2)c1`, greater than 0.1 µM.
The same measure, in the same setting: as for `Cc1c(N2CCC(Cc3ccccc3)CC2)c(=O)n(C[C@H](N)c2ccccc2)c(=O)n1Cc1c(F)cccc1F`, the figure is 0.0342 µM; as for `Cc1c(N2CCN(Cc3cccc(F)c3F)CC2)c(=O)n(C[C@H](N)c2ccccc2)c(=O)n1Cc1c(F)cccc1F`, 0.01 µM.
The compound `Cc1c(N2CCN(Cc3ccccc3OC(F)(F)F)CC2)c(=O)n(C[C@H](N)c2ccccc2)c(=O)n1Cc1c(F)cccc1F` came in with an IC50 greater than 0.1 µM.
As for `Cc1c(N2CCN[C@@H](Cc3ccccc3)C2)c(=O)n(C[C@H](N)c2ccccc2)c(=O)n1Cc1c(F)cccc1F`, the IC50 is greater than 0.1 µM.
Still for that read-out and setting: as for `Cc1c(N2CCN(CCCc3ccccc3)CC2)c(=O)n(C[C@H](N)c2ccccc2)c(=O)n1Cc1c(F)cccc1F`, the figure is greater than 0.1 µM; as for `Cc1c(N2CCCC(Cc3ccccc3)C2)c(=O)n(C[C@H](N)c2ccccc2)c(=O)n1Cc1c(F)cccc1F` (some centres undefined), greater than 0.1 µM.
With `Cc1c(N2CCCC(c3ccccc3)C2)c(=O)n(C[C@H](N)c2ccccc2)c(=O)n1Cc1c(F)cccc1F` (some centres undefined), the IC50 was greater than 0.1 µM.
`Cc1ccc(CN2CCN(c3c(C)n(Cc4c(F)cccc4F)c(=O)n(C[C@H](N)c4ccccc4)c3=O)CC2)cc1` returned an IC50 of 0.0655 µM.
Same read-out and setting: with `Cc1c(N2CCN(CCc3ccccc3)CC2)c(=O)n(C[C@H](N)c2ccccc2)c(=O)n1Cc1c(F)cccc1F` the figure was greater than 0.1 µM.
The same measure, in the same setting: with `Cc1c(N2CCN[C@H](Cc3ccccc3)C2)c(=O)n(C[C@H](N)c2ccccc2)c(=O)n1Cc1c(F)cccc1F` the figure was greater than 0.1 µM; with `Cc1ccccc1CN1CCN(c2c(C)n(Cc3c(F)cccc3F)c(=O)n(C[C@H](N)c3ccccc3)c2=O)CC1`, 0.0738 µM; with `Cc1c(N2CCCCC2)c(=O)n(C[C@H](N)c2ccccc2)c(=O)n1Cc1c(F)cccc1F`, 0.129 µM.
Regarding `COc1ccccc1CN1CCN(c2c(C)n(Cc3c(F)cccc3F)c(=O)n(C[C@H](N)c3ccccc3)c2=O)CC1`, the IC50 is greater than 1 µM.
On the same count and under the same terms, with `Cc1c(N2CCN(Cc3ccc(F)cc3)CC2)c(=O)n(C[C@H](N)c2ccccc2)c(=O)n1Cc1c(F)cccc1F` the figure was 0.0486 µM; with `Cc1c(N2CCN(Cc3ccc(C(F)(F)F)cc3)CC2)c(=O)n(C[C@H](N)c2ccccc2)c(=O)n1Cc1c(F)cccc1F`, 0.0657 µM.
Still for that read-out and setting: as for `Cc1c(N2CCCCC2C)c(=O)n(C[C@H](N)c2ccccc2)c(=O)n1Cc1c(F)cccc1F` (some centres undefined), the figure is greater than 0.1 µM; as for `Cc1c(N2CCN(Cc3ccc(O)cc3)CC2)c(=O)n(C[C@H](N)c2ccccc2)c(=O)n1Cc1c(F)cccc1F`, 0.0353 µM; as for `Cc1c(N2CCN(CC(=O)c3ccccc3Cl)CC2)c(=O)n(C[C@H](N)c2ccccc2)c(=O)n1Cc1c(F)cccc1F`, greater than 0.1 µM.
The same measure, in the same setting: with `Cc1c(N2CCN(Cc3cccc(C(F)(F)F)c3F)CC2)c(=O)n(C[C@H](N)c2ccccc2)c(=O)n1Cc1c(F)cccc1F` the figure was 0.0011 µM.
The compound `Cc1c(N2CCN(Cc3cccnc3)CC2)c(=O)n(C[C@H](N)c2ccccc2)c(=O)n1Cc1c(F)cccc1F` had an IC50 of 0.0139 µM.
`Cc1c(N2CCC(Cc3ccccc3)C2)c(=O)n(C[C@H](N)c2ccccc2)c(=O)n1Cc1c(F)cccc1F` (some centres undefined) displayed an IC50 greater than 0.1 µM.
Same read-out and setting: as for `Cc1c(N2CCN(Cc3ccccc3C#N)CC2)c(=O)n(C[C@H](N)c2ccccc2)c(=O)n1Cc1c(F)cccc1F`, the figure is 0.0068 µM.
In the case of `Cc1c(N2CCN(Cc3ccccc3C(F)(F)F)CC2)c(=O)n(C[C@H](N)c2ccccc2)c(=O)n1Cc1c(F)cccc1F`, the IC50 came to 0.0656 µM.
Consider `Cc1c(N2CCN(Cc3ccccc3Cl)CC2)c(=O)n(C[C@H](N)c2ccccc2)c(=O)n1Cc1c(F)cccc1F`, for which the IC50 is 0.0191 µM.
Same read-out and setting: with `Cc1c(N2CCc3ccccc3C2)c(=O)n(C[C@H](N)c2ccccc2)c(=O)n1Cc1c(F)cccc1F` the figure was greater than 0.1 µM; with `Cc1c(N2CCN(Cc3ccccn3)CC2)c(=O)n(C[C@H](N)c2ccccc2)c(=O)n1Cc1c(F)cccc1F`, greater than 0.1 µM.
On the same count and under the same terms, as for `Cc1c(N2CCN(Cc3ccccc3F)CC2)c(=O)n(C[C@H](N)c2ccccc2)c(=O)n1Cc1c(F)cccc1F`, the figure is 0.0041 µM.
The same measure, in the same setting: as for `Cc1c(N2CCN(S(=O)(=O)c3ccccc3)CC2)c(=O)n(C[C@H](N)c2ccccc2)c(=O)n1Cc1c(F)cccc1F`, the figure is greater than 0.1 µM; as for `Cc1c(N2CCN(Cc3ccccc3[N+](=O)[O-])CC2)c(=O)n(C[C@H](N)c2ccccc2)c(=O)n1Cc1c(F)cccc1F`, 0.0133 µM; as for `Cc1c(N2CCN(Cc3cccc(C(=O)O)c3)CC2)c(=O)n(C[C@H](N)c2ccccc2)c(=O)n1Cc1c(F)cccc1C(F)(F)F`, greater than 0.1 µM.
In the case of `Cc1c(N2CCN(Cc3cccc(C(F)(F)F)c3)CC2)c(=O)n(C[C@H](N)c2ccccc2)c(=O)n1Cc1c(F)cccc1F`, the half-inhibitory concentration (IC50) came out at 0.00091 µM.
`Cc1c(N2CCCC(C)C2)c(=O)n(C[C@H](N)c2ccccc2)c(=O)n1Cc1c(F)cccc1F` (some centres undefined) showed an IC50 of 0.0803 µM.
The same measure, in the same setting: with `Cc1c(N2CCNC(c3ccccc3)C2)c(=O)n(C[C@H](N)c2ccccc2)c(=O)n1Cc1c(F)cccc1F` (some centres undefined) the figure was greater than 0.1 µM; with `COc1ccc(CN2CCN(c3c(C)n(Cc4c(F)cccc4F)c(=O)n(C[C@H](N)c4ccccc4)c3=O)CC2)cc1`, greater than 0.1 µM.
Same read-out and setting: as for `Cc1c(N2CCN(CC3COc4ccccc4O3)CC2)c(=O)n(C[C@H](N)c2ccccc2)c(=O)n1Cc1c(F)cccc1F` (some centres undefined), the figure is greater than 0.1 µM.
Still for that read-out and setting: with `Cc1c(N2CCN(Cc3ccc[nH]c3=O)CC2)c(=O)n(C[C@H](N)c2ccccc2)c(=O)n1Cc1c(F)cccc1C(F)(F)F` the figure was greater than 0.1 µM; with `Cc1c(N2CCNCC2)c(=O)n(C[C@H](N)c2ccccc2)c(=O)n1Cc1c(F)cccc1F`, greater than 1 µM.
Take `Cc1c(N2CCN(Cc3cccc(C#N)c3)CC2)c(=O)n(C[C@H](N)c2ccccc2)c(=O)n1Cc1c(F)cccc1F`: the IC50 stood at 0.005 µM.
On the same count and under the same terms, with `COc1cccc(CN2CCN(c3c(C)n(Cc4c(F)cccc4F)c(=O)n(C[C@H](N)c4ccccc4)c3=O)CC2)c1` the figure was 0.0148 µM; with `Cc1c(N2CCN(Cc3ccncc3)CC2)c(=O)n(C[C@H](N)c2ccccc2)c(=O)n1Cc1c(F)cccc1F`, greater than 0.1 µM; with `Cc1c(N2CCN(Cc3ccc(Cl)cc3)CC2)c(=O)n(C[C@H](N)c2ccccc2)c(=O)n1Cc1c(F)cccc1F`, 0.014 µM.
Turning to `Cc1c(N2CCNC(CCO)C2)c(=O)n(C[C@H](N)c2ccccc2)c(=O)n1Cc1c(F)cccc1F` (some centres undefined), the IC50 is greater than 0.1 µM.
The same measure, in the same setting: as for `Cc1c(N2CCN(Cc3cccc(Cl)c3)CC2)c(=O)n(C[C@H](N)c2ccccc2)c(=O)n1Cc1c(F)cccc1F`, the figure is 0.0031 µM.
On the same count and under the same terms, with `Cc1c(N2CCN(Cc3cccc(F)c3)CC2)c(=O)n(C[C@H](N)c2ccccc2)c(=O)n1Cc1c(F)cccc1F` the figure was 0.0038 µM.
On the same count and under the same terms, as for `Cc1c(N2CCN(c3ccccc3)CC2)c(=O)n(C[C@H](N)c2ccccc2)c(=O)n1Cc1c(F)cccc1F`, the figure is greater than 1 µM; as for `Cc1c(N2CCC(c3ccccc3)C2)c(=O)n(C[C@H](N)c2ccccc2)c(=O)n1Cc1c(F)cccc1F` (some centres undefined), greater than 0.1 µM.
Consider `Cc1c(N2CCN(CC3CCCCC3)CC2)c(=O)n(C[C@H](N)c2ccccc2)c(=O)n1Cc1c(F)cccc1F`, for which the IC50 is greater than 1 µM.
Still for that read-out and setting: as for `Cc1c(N2CCN(Cc3ccccc3)CC2)c(=O)n(C[C@H](N)c2ccccc2)c(=O)n1Cc1c(F)cccc1F`, the figure is 0.012 µM; as for `Cc1c(N2CCC(C)CC2)c(=O)n(C[C@H](N)c2ccccc2)c(=O)n1Cc1c(F)cccc1F`, 0.0756 µM.

The values are drawn from ChEMBL document CHEMBL4428102, “Discovery of an Orally Bioavailable Gonadotropin-Releasing Hormone Receptor Antagonist” (J Med Chem, 2016).
